Earlier results in Sander's compilation of Henry's law constants.
Where “and” joins values, the source holds several entries; their conditions need not be identical. Equal entries are not always repeated.

Assays:
[1] = Henry solubility constant Hcp at 310 K (mol/(m3 Pa)); conditions: cited value
[2] = Henry solubility constant Hcp at 298.15 K (mol/(m3 Pa)); conditions: cited value
[3] = Henry solubility constant Hcp at 293 K (mol/(m3 Pa)); conditions: cited value
[4] = Henry solubility constant Hcp at 277 K (mol/(m3 Pa)); conditions: reference: Roth (1942); cited value
[5] = Henry solubility constant Hcp at 311 K (mol/(m3 Pa)); conditions: reference: Orcutt and Seevers (1937b); cited value
[6] = Henry solubility constant Hcp at 295 K (mol/(m3 Pa)); conditions: cited value
[7] = reference: Burkholder et al. (2015)
[8] = reference: Burkholder et al. (2019)
[9] = reference: Gaffney and Senum (1984)
[10] = reference: Sander et al. (2006)
[11] = reference: Sander et al. (2011)
[12] = reference: Pandis and Seinfeld (1989)

For `CCCCCCCC=O` [octanal], the “Henry solubility constant Hcp at 310 K” value ([1]; reference: Nahon et al. (2000)) is given as 0.019 and the “Henry solubility constant Hcp” value ([2]; reference: Brockbank (2013)) is given as 0.02.
For `Cc1cc(C)nc(Nc2ccccc2)n1` [pyrimethanil], the “Henry solubility constant Hcp at 293 K” value ([3]; reference: Tomlin (1998)) is given as 280.
In the case of `ClOCl` [dichlorine monoxide], the “Henry solubility constant Hcp at 277 K” value [4] is given as 0.07 and the “Henry solubility constant Hcp” value [2] is given as 0.034 and 0.076.
In the case of `CSC` [dimethyl sulfide], the “Henry solubility constant Hcp” value ([2]; reference: Brockbank (2013)) is listed as 0.0054, the “Henry solubility constant Hcp” value [2, 7] is listed as 0.0053 and the “Henry solubility constant Hcp” value [2, 8] is listed as 0.0053. For the same compound, the “Henry solubility constant Hcp” value ([2]; reference: Fogg and Sangster (2003)) was 0.0052, the “Henry solubility constant Hcp” value [2, 9] was 0.0061 and the “Henry solubility constant Hcp” value [2, 10] was 0.0053. For the same compound, the “Henry solubility constant Hcp” value [2, 11] was 0.0053 and the “Henry solubility constant Hcp at 293 K” value ([3]; reference: Vitenberg et al. (1975)) was 0.007.
For `O=O` [oxygen], the “Henry solubility constant Hcp” value ([2]; reference: Battino (1981)) is given as 1.3e-05, the “Henry solubility constant Hcp” value ([2]; reference: Battino et al. (1983)) is given as 1.3e-05 and the “Henry solubility constant Hcp” value [2, 7] is given as 1.3e-05. For the same compound, the “Henry solubility constant Hcp” value [2, 8] was 1.3e-05, the “Henry solubility constant Hcp” value ([2]; reference: Himmelblau (1960)) was 1.2e-05 and the “Henry solubility constant Hcp” value [2, 10] was 1.3e-05. For the same compound, the “Henry solubility constant Hcp” value [2, 11] was 1.3e-05 and the “Henry solubility constant Hcp at 293 K” value ([3]; reference: Nunn (1958)) was 1.4e-05.
For `CCOC(C)=O` [ethyl ethanoate], the “Henry solubility constant Hcp at 310 K” value ([1]; reference: Nahon et al. (2000)) is given as 0.039, the “Henry solubility constant Hcp” value ([2]; reference: Brockbank (2013)) is given as 0.065 and the “Henry solubility constant Hcp” value [2, 7] is given as 0.059. For the same compound, the “Henry solubility constant Hcp” value [2, 8] was 0.065 and the “Henry solubility constant Hcp” value [2, 11] was 0.059.
For `CCCC(=O)OCC` [ethyl butanoate], the “Henry solubility constant Hcp at 310 K” value ([1]; reference: Nahon et al. (2000)) is listed as 0.027 and the “Henry solubility constant Hcp” value ([2]; reference: Brockbank (2013)) is listed as 0.025.
In the case of `CCCC(=O)OC` [methyl butanoate], the “Henry solubility constant Hcp at 310 K” value ([1]; reference: Nahon et al. (2000)) is given as 0.036 and the “Henry solubility constant Hcp” value ([2]; reference: Brockbank (2013)) is given as 0.039.
In the case of `[N-]=[N+]=O` [dinitrogen monoxide], the “Henry solubility constant Hcp at 311 K” value [5] is listed as 0.00017, the “Henry solubility constant Hcp at 310 K” value ([1]; reference: Harris (1951)) is listed as 0.00017 and the “Henry solubility constant Hcp” value [2, 7] is listed as 0.00024. For the same compound, the “Henry solubility constant Hcp” value [2, 8] was 0.00024, the “Henry solubility constant Hcp” value ([2]; reference: Gordon (1895)) was 0.00026 and the “Henry solubility constant Hcp” value [2, 10] was 0.00024. The “Henry solubility constant Hcp” value [2, 11] was 0.00024, the “Henry solubility constant Hcp” value ([2]; reference: Young (1981b)) was 0.00024 and the “Henry solubility constant Hcp at 293 K” value ([3]; reference: Macintosh et al. (1958)) was 0.0003. The “Henry solubility constant Hcp at 293 K” value ([3]; reference: Nunn (1958)) was 0.00028.
For `CC(Cc1ccc(C(C)(C)C)cc1)CN1CCCCC1` (stereo not given) [fenpropidin], the “Henry solubility constant Hcp at 293 K” value ([3]; reference: Tomlin (1998)) is given as 0.099.
In the case of `O=CCO` [2-hydroxyethanal], the “Henry solubility constant Hcp at 295 K” value ([6]; reference: Lee and Zhou (1993)) is listed as 990.
For `O=C=O` [carbon dioxide], the “Henry solubility constant Hcp” value [2, 7] is listed as 0.00034, the “Henry solubility constant Hcp” value [2, 8] is listed as 0.00034 and the “Henry solubility constant Hcp” value ([2]; reference: Carroll et al. (1991)) is listed as 0.00034. The “Henry solubility constant Hcp” value ([2]; reference: Chen et al. (1979)) was 0.00034, the “Henry solubility constant Hcp” value ([2]; reference: Crovetto (1991)) was 0.00034 and the “Henry solubility constant Hcp” value ([2]; reference: Edwards et al. (1978)) was 0.00034. The “Henry solubility constant Hcp” value ([2]; reference: Lelieveld and Crutzen (1991)) was 0.00034, the “Henry solubility constant Hcp” value [2, 12] was 0.00034 and the “Henry solubility constant Hcp” value ([2]; reference: Perry and Chilton (1973)) was 0.00034. For the same compound, the “Henry solubility constant Hcp” value [2, 10] was 0.00033, the “Henry solubility constant Hcp” value [2, 11] was 0.00033 and the “Henry solubility constant Hcp” value ([2]; reference: Weiss (1974)) was 0.00034. The “Henry solubility constant Hcp” value ([2]; reference: Yoo et al. (1986)) was 0.00034 and the “Henry solubility constant Hcp at 293 K” value ([3]; reference: Nunn (1958)) was 0.00039.
In the case of `[Hg]` [mercury], the “Henry solubility constant Hcp” value [2, 7] is listed as 0.0013, the “Henry solubility constant Hcp” value [2, 8] is listed as 0.0013 and the “Henry solubility constant Hcp” value ([2]; reference: Clever (1987)) is listed as 0.0012. The “Henry solubility constant Hcp” value ([2]; reference: Clever et al. (1985)) was 0.0011, the “Henry solubility constant Hcp” value ([2]; reference: Shon et al. (2005)) was 0.0012 and the “Henry solubility constant Hcp at 293 K” value ([3]; reference: WHO (1990)) was 0.0014.
For `CC(=O)OO[N+](=O)[O-]` [peroxyacetyl nitrate], the “Henry solubility constant Hcp at 295 K” value ([6]; reference: Schwartz (1986)) is given as 0.036, the “Henry solubility constant Hcp” value [2, 7] is given as 0.028 and the “Henry solubility constant Hcp” value [2, 8] is given as 0.028. The “Henry solubility constant Hcp” value [2, 9] was 0.036, the “Henry solubility constant Hcp” value ([2]; reference: Leu and Zhang (1999)) was 0.029 and the “Henry solubility constant Hcp” value [2, 12] was 0.029. For the same compound, the “Henry solubility constant Hcp” value [2, 10] was 0.028 and the “Henry solubility constant Hcp” value [2, 11] was 0.028.
